{"source": "patent US12201608B2", "about": "“Methods for treating Parkinson's disease by administering resiniferatoxin” (Sorrento Therapeutics, Inc., priority 2018, dated 2025)", "test_system": "dopamine and its metabolite levels in the striatum, AAV-A53T mouse model of PD-like pathology", "assay": "Dopamine and metabolites in ipsilateral and contralateral striatum by HPLC", "assay_type": "in vivo, C57Bl/6J male mice", "details": "for dopamine levels in striatum: vs AAV-A53T vehicle", "procedure": "For this study, a total of 110 male C57Bl/6J mice two months of age were infused with either AAV-A53T (90 mice) or AAV-Null (20 mice) into substantia nigra unilaterally to induce PD-like pathology or to serve as sham controls, respectively. Mice infused with AAV-Null (empty) vector (“sham-infused” mice) were used in order to control for the effect of the viral infusion. After 7 or 14 days of AAV-A53T mediated disease model induction, the mice were treated with RTX (0.04 μg or 0.125 μg) (5 μL volume, prepared from a 25 μg/ml RTX solution containing Polysorbate 80 at 0.03% w/v, dextrose at 0.05% w/v, Phosphate Buffer at 30 mM, and NaCl 0.54% w/v, pH 7.2, and diluted in saline as needed) by single intrathecal infusion at lumbar spinal cord area. One AAV-Null and AAV-A53T infused group per each time point were treated with vehicle instead of RTX.\nThe mice were then treated with RTX or vehicle by intrathecal infusion 7 or 14 days after AAV infusion. The mice were assigned to treatment groups as follows: • Group 1: 10 male mice sham-infused with AAV-null, and administered vehicle at D7. • Group 2: 15 male mice infused with AAV-A53T, and administered vehicle at D7. • Group 3: 15 male mice infused with AAV-A53T, and administered 0.04 μg of RTX at D7. • Group 4: 15 male mice infused with AAV-A53T, and administered 0.125 μg of RTX at D7. • Group 5: 10 male mice sham-infused with AAV-null, and administered vehicle at D14. • Group 6: 15 male mice infused with AAV-A53T, and administered vehicle at D14. • Group 7: 15 male mice infused with AAV-A53T, and administered 0.04 μg of RTX at D14. • Group 8: 15 male mice infused with AAV-A53T, and administered 0.125 μg of RTX at D14.\nBody weight of the animals was monitored two times per week. Fine motor kinematic analysis was performed 7 weeks after AAV infusion. 8 weeks post AAV infusion, the mice were euthanized and subjected to tissue sample collection. Dopamine and its metabolites were analyzed from ipsilateral and contralateral striata by high performance liquid chromatography (HPLC).\nIpsi- and contralateral striatum were collected in 1.5 mL Eppendorf tubes, snap-frozen on dry ice (i.e. left and right separately), weighed and stored at −80° C. for HPLC analysis of dopamine and its metabolites.\nDopamine (DA), 3,4-dihydroxyphenylacetic acid (DOPAC) and homovanillic acid (HVA) concentrations in mouse striatal tissue samples were determined by high performance liquid chromatography (HPLC) method with electrochemical detection. After thawing on ice, tissue samples were homogenized (1:10, w/v) in 0.1 M perchloric acid with MSE Soniprep 150 ultrasonic disintegrator (MSE Scientific Instruments, Crawley, UK). Tissue homogenates were centrifuged for 15 min at 15000 g at 4° C. Supernatants were filtered through polypropylene membrane (GHP Acrodisc 13 0.45 μm, Pall Corporation, Ann Arbor, MI, USA) and diluted (1:1) with 0.1 M perchloric acid. The samples were transferred into plastic vials and analyzed immediately.\nThe ESA HPLC system (ESA Inc., Chelmsford, MA, USA) consists of a 582 solvent delivery system, a DG-1210 vacuum degasser, an 542 autosampler, a 880 thermostatted chamber, an eight-channel CoulArray® 5600 electrochemical array detector equipped with a two-channel 5014B microdialysis cell and a CoulArray® for Windows data acquisition module (version 1.00). The applied potentials are −175 mV (channel 1), +225 mV (channel 2), +350 mV (channel 3) and +450 mV (channel 4). DA and DOPAC are detected on channel 2 and HVA on channel 3. Injection volume is 10 μl.\nThe analytes were separated on a Zorbax SB-Aq reversed-phase column (2.1×100 mm, 3.5 μm, Agilent Technologies Inc., Little Falls, Wilmington, DE, USA) with a Zorbax SB-Aq precolumn (2.1×12.5 mm, 5 μm) in an isocratic run. The column was maintained at 35° C. The mobile phase was 100 mM monobasic sodium phosphate containing 4.75 mM citric acid monohydrate, 7 mM 1-octanesulfonic acid and 50 μM disodium EDTA-acetonitrile mixture (98:2, v/v). […]", "key": {"[1]": {"details": "high dose, 7 days after AAV-A53T infusion, statistically non-significant (one-way ANOVA)"}}, "note": "“Also recorded” adds a separate entry of the source.", "data": [{"smiles": "C=C(C)[C@]12C[C@@H](C)[C@@]34O[C@](Cc5ccccc5)(O[C@@H]1[C@@H]3C=C(COC(=O)Cc1ccc(O)c(OC)c1)C[C@]1(O)C(=O)C(C)=C[C@@H]41)O2", "note": "[RTX, Resiniferatoxin]", "values": [{"measurement": "dopamine and its metabolites levels, treatment effect", "setting": "AAV-A53T vehicle groups vs corresponding RTX groups, striata 8 weeks after model induction", "value": "no significant effects of RTX treatment; also recorded: no significant treatment effect"}, {"measurement": "dopamine turnover ((DOPAC + HVA) / dopamine)", "setting": "both doses, 7 and 14 days after AAV-A53T infusion, statistically non-significant (Kruskal-Wallis test)", "value": "minor trend towards even higher turnover rates"}, {"measurement": "DOPAC levels in striatum", "setting": "groups treated at day 14", "value": "non-significant trend of lower DOPAC levels"}, {"measurement": "HVA levels in striatum", "setting": "groups treated at day 14", "value": "non-significant trend of lower HVA levels"}, {"measurement": "dopamine levels in striatum", "setting": "groups treated at day 14", "value": "non-significant trend of lower dopamine levels"}, {"measurement": "DOPAC levels in striatum", "setting": "[1]", "value": "minor trend towards higher DOPAC levels"}, {"measurement": "HVA level in striatum", "setting": "[1]", "value": "minor trend towards higher concentration"}, {"measurement": "dopamine levels in striatum", "setting": "[1]", "value": "minor trend towards higher dopamine levels"}]}]}
